Results as given in US20260272923A1, “NONSENSE MEDIATED DECAY INHIBITOR COMPOUNDS” (The Johns Hopkins University, priority 2023, published 2026).

Tests used:
[1] = system: NCI-H716 and NCI-2228 cell lines with and without HLA-A24 expression; experiment: Luciferase cell killing co-culture assay; type: cell-based; details: with human CD8+ T-cells and bispecific antibody
Protocol: To determine whether this relief of repression is targetable, a bispecific antibody targeting wild type TP53 and CD3 was employed. […] To assess if these novel antigens could be utilized for immune driven cell specific killing, NCI-H716 and NCI-2228 cell lines with and without HLA-A24 expression were labeled with luciferase. […] To establish this effect remained in-vivo, NCI-H716 cells expressing HLA-A24 and luciferase were placed orthotopically in NSG mice. Tumor size was measured by luciferase readings via bioluminescence imaging (BLI).

RENCA (renal) = experiment: Syngeneic RENCA tumor mouse model; type: in vivo, mice
Protocol: Confident NMD inhibition with the compound of Formula I was leading to in-vivo changes to the tumor and its immune environment and it was evaluated whether these alterations could be taken advantage of in an immune competent system. Murine RENCA (renal) and LLC (Lewis Lung Cancer) cell lines were chosen as they harbor a large number of out of frame indel mutations based on whole exome DNA sequencing (WES) (Table SX-RENCA and LLC mutations). It was confirmed that treatment of these cell lines could stop NMD mediated repression of mutant RNA, and induced expression of exogenous genes controlled by NMD by real time PCR. Cells were placed in the mammary fat pad of C57BL/6N (LLC also known as LL2) and BALB/c (RENCA) mice, randomly sorted animals after tumors became palpable ensuring to balance the tumor size of each group, and then treated with vehicle or the compound of Formula I (FIG. 6A).

melanoma line B16-F10 = experiment: Syngeneic B16-F10 melanoma model; type: in vivo
[2] = Physical properties related to solubility; type: physicochemical; details: compared with previously made SMG1 specific inhibitors
[3] = system: nonsense mediated decay (NMD); experiment: NCI-H358 and LS180 xenograft tumors in NOD-SCID mice, mutant RNA transcripts and tolerability; type: in vivo
LLC (Lewis Lung Cancer) = experiment: Syngeneic LLC tumor mouse model; type: in vivo, mice
Source text: Murine RENCA (renal) and LLC (Lewis Lung Cancer) cell lines were chosen as they harbor a large number of out of frame indel mutations based on whole exome DNA sequencing (WES) (Table SX-RENCA and LLC mutations). It was confirmed that treatment of these cell lines could stop NMD mediated repression of mutant RNA, and induced expression of exogenous genes controlled by NMD by real time PCR. […]

NCI-H716 and NCI-2228 = experiment: Interferon gamma ELISA in co-culture with human CD8+ T-cells and TP53-CD3 bispecific antibody; type: cell-based
NCI-H358 and LS180 cells = experiment: MHC class I HLA presentation of mutant specific peptides by quantitative HPLC-Mass Spectrometry; type: cell-based; details: 24 hours in-vitro, pan-HLA immunoprecipitation
Protocol: Downregulating mutated genes with frame shifts via NMD is one mechanism employed by cancer cells to avoid immune surveillance. To confirm the small molecule could alter the immune landscape of a tumor, cell surface presentation of known mutant proteins was assessed in NCI-H358 and LS180 cells. Cells were treated in-vitro for 24 hours with DMSO or the compound of Formula I in duplicate, cross linked and immunoprecipitated with pan-HLA antibodies to obtain cell surface MHC presented peptides. 187 mutation specific peptides were initially identified that could be potentially presented by using the union of NetMHC and Predictor of Immunogenic Epitopes (PRIME) predictions. These predictions were tested by performing HPLC Mass Spectromety (MS) on cells that were treated in-vitro for 24 hours with DMSO or the compound of Formula I, cross linked and immunoprecipitated with pan-HLA antibodies to obtain cell surface MHC presented peptides. Based on those results, heavy isotope labeled peptides were designed for 14 peptides from NCI-H358, and 24 peptides from LS180 cells with high confidence of MS detection. These heavy labeled peptides were then used as internal standard to perform quantitative HPLC-Mass Spectrometry. […] This is consistent with re-expression of mutant protein shown previously by western blot (FIGS. 3C and 4D). […]

[4] = system: nonsense mediated decay (NMD); experiment: Targeted RNA sequencing of heterozygous indel mutations in NCI-H358 and LS180 cells; type: cell-based; details: NCI-H358 and LS180 cells treated in-vitro
Source text: (§1) It was next sought to evaluate whether LY3023414 could relieve repression of indel containing transcripts in cancer cells. The microsatellite stable NCI-H358 and microsatellite instable LS180 lung and colorectal cancer cell lines were chosen respectively. Nearly 40% of heterozygous indel and 25% of nonsense single base-pair mutation containing genes show increased expression of their mutant allele when treated with LY3023414 when evaluated by RNA sequencing (FIG. 2A). […] Heterozygous single nucleotide polymorphism (SNP) Ring Finger Protein 43 (RNF43) and drosha ribonuclease […] (DROSHA) served as controls, and allele ratios remain unchanged with treatment (FIG. 2B). To investigate for changes at the protein level, NCI-H358 cells were treated for 24 hours with either LY3023414 or DMSO.
(§2) Analyzing a wider set of 21 NMD sensitive genes from the RNA-Seq analysis in LS180 confirmed that LY3023414 and SMG1 specific inhibitor increase the same 18 genes with a greater than 80% re-expression rate, in both cell lines. […] As SMG1 inhibition is an off target effect for LY3023414, the concentrations used in this study may result in inhibition of a number of different kinases.
(§3) To confirm disruption of downstream signaling of SMG1, a western blot was performed with phosphorylation specific antibodies for UPF1.

phosphorylated UPF1 = experiment: Phospho-UPF1 specific western blot; type: cell-based; details: three different cell lines
Protocol: as §2, §3

SMG1 protein = SMG1 protein (Homo sapiens, UniProt Q96Q15); experiment: Kinativ assay; type: binding; details: 100 nM run in duplicate
[5] = system: NMD targeted mutant protein (EXOC1, SPTAN1); experiment: Western blot of mutant proteins in NCI-H358 and LS180 cells; type: cell-based; details: NCI-H358 and LS180
Source text: as §1, §2, §3

Chain of SMG1 protein (Q96Q15 whole entry): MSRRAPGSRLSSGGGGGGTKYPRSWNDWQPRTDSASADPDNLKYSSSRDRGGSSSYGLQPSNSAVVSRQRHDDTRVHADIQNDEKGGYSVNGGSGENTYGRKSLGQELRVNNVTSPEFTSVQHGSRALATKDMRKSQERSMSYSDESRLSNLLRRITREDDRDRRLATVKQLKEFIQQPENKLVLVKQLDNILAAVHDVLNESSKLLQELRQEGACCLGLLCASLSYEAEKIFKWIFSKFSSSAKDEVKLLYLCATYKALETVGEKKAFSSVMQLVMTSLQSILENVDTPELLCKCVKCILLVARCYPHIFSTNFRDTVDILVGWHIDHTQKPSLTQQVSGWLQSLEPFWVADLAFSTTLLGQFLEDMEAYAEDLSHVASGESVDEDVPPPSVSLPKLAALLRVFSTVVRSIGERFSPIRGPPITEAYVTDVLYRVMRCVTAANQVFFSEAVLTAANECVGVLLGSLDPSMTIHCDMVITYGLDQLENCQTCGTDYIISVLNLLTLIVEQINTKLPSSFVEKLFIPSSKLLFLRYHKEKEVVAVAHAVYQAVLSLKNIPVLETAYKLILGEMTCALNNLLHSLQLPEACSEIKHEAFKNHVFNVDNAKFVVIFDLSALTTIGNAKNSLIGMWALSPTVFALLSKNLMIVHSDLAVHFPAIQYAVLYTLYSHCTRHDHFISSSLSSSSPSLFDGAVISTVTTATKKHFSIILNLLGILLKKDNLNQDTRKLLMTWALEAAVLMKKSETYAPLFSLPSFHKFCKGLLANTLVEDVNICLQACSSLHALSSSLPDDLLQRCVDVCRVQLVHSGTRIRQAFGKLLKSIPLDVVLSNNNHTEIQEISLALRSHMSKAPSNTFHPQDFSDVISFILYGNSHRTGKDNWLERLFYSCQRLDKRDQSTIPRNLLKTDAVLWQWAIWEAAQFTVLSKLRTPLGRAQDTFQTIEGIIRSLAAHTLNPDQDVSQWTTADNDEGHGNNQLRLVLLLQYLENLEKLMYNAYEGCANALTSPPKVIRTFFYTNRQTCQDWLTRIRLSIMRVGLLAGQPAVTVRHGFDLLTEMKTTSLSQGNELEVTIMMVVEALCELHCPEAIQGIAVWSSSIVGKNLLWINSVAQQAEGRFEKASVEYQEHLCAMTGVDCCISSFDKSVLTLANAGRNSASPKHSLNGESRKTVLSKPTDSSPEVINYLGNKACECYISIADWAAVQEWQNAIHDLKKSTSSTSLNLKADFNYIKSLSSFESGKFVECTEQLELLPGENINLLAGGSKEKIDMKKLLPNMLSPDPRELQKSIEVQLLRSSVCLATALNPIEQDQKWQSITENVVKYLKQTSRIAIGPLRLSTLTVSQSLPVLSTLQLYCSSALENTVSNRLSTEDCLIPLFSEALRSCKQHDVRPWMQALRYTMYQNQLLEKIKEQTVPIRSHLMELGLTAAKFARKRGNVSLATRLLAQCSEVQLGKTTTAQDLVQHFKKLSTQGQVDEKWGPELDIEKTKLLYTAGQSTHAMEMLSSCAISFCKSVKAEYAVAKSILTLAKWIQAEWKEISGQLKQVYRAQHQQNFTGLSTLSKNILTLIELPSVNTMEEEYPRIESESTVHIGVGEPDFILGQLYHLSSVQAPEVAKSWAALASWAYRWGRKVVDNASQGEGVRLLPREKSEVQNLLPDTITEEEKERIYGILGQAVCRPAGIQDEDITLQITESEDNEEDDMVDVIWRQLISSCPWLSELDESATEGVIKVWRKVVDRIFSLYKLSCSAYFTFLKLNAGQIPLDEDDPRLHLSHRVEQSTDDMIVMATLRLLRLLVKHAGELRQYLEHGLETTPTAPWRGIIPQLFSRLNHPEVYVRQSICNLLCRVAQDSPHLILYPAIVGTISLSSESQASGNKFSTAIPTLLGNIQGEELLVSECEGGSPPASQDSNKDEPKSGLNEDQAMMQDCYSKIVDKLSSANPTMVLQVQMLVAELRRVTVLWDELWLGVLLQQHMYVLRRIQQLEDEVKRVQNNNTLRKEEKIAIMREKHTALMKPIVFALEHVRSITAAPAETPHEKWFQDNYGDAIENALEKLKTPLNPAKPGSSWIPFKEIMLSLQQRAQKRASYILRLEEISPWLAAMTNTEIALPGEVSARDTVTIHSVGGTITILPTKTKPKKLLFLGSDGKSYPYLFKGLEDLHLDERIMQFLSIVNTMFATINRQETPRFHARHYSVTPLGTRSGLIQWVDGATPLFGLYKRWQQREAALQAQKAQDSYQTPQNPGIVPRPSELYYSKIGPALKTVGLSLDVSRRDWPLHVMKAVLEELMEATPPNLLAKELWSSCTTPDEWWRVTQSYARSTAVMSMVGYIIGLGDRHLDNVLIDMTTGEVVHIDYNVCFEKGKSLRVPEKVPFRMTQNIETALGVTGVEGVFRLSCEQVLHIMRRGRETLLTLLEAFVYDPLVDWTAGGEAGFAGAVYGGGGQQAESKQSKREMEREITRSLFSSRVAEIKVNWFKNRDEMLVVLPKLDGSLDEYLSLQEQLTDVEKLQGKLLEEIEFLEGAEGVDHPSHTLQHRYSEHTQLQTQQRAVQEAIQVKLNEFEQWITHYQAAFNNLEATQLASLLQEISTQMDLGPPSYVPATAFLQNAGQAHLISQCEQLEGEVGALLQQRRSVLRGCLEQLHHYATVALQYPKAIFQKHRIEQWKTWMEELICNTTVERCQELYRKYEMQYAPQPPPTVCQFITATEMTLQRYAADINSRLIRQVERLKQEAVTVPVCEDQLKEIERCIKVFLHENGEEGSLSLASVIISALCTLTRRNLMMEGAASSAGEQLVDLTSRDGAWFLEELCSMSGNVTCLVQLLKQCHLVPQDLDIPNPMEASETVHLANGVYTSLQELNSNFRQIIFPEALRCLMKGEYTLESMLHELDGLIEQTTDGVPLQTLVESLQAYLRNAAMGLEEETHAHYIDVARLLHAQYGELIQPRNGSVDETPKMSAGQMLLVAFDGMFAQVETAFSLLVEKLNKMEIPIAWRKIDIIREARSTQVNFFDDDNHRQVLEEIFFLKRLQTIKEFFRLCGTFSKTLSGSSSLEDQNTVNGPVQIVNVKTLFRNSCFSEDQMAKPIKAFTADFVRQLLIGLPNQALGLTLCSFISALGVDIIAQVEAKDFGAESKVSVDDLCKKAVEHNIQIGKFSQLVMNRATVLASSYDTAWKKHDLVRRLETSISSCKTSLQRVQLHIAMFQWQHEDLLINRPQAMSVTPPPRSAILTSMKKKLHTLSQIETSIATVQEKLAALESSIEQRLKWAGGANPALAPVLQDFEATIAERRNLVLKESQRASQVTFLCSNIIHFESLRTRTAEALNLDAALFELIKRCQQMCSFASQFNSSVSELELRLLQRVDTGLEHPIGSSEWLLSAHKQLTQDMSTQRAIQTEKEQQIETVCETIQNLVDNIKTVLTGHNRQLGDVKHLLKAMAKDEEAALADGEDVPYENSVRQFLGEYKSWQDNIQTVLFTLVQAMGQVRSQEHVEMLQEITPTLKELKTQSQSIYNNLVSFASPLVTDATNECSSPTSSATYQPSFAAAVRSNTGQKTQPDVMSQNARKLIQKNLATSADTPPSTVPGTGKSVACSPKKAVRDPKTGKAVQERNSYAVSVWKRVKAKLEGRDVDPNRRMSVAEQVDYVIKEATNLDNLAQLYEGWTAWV

With CNC(=O)Nc1ccc(-c2cc(-c3ccnc(Nc4ccc(Cl)c(S(=O)(=O)N5CCNCC5)c4)n3)ccn2)cc1 [compound of Formula I] the cell killing [1] was “cell killing only in cells with HLA-A24 present”, the weight loss (RENCA (renal); BALB/c background, within tolerable limits) was “Some weight loss” and the tumor growth (RENCA (renal); BALB/c mice, 20 mg/kg) was “Significant slowing of tumor growth”. The “tumor growth in immunosuppressed mice” value (RENCA (renal); immunodeficient NSG (BALB/c) mice) was “minimal or no difference in cell growth”, the tumor volume (melanoma line B16-F10) was “showed a change in tumor volume” and the “physical properties related to solubility” value [2] was “more desirable physical properties related to solubility”. For the same molecule, the “toxicity related behavior (e.g., hunching, lethargy)” value ([3]; doses up to 50 mg/kg) was “did not show any toxicity related behavior”, the “mutant transcript levels in tumors relative to untreated mice” value ([3]; intraperitoneal (IP)) was “increases in mutant transcript levels” and the weight loss (LLC (Lewis Lung Cancer); C57BL/6N background) was “No weight loss”. For the same molecule, the tumor growth (LLC (Lewis Lung Cancer); C57BL/6N mice, 30 mg/kg) was “Significant slowing of tumor growth”, the “tumor growth in immunosuppressed mice” value (LLC (Lewis Lung Cancer); immunodeficient C57BL/6N SCID mice) was “minimal or no difference in cell growth” and the interferon gamma release (NCI-H716 and NCI-2228; with bispecific antibody and human CD8+ T-cells) was “increase in interferon gamma release”. For the same molecule, the interferon gamma levels (NCI-H716 and NCI-2228; without bispecific antibody) was “no change in interferon gamma levels”, the “cell surface MHC presentation of mutant specific neoantigen” value (NCI-H358 and LS180 cells) was “presence of a neoantigen specific to the mutant alleles of two genes in NCI-H358 and two other genes in LS180 cells” and the “bioactive concentration range (dose response curves)” value [4] was “bioactive in the nanomolar range”. The “amount of phosphorylated UPF1” value (phosphorylated UPF1) was “strongly decreased the amount of phosphorylated UPF1”, the “specificity for SMG1 over other kinases” value (SMG1 protein) was “maintains high specificity for SMG1 protein over other kinases” and the “mutant protein expression (western blot)” value [5] was “induce expression of the NMD targeted mutant protein”.
